Reference: US5510459A, “Glucagon antagonists” (ZymoGenetics, Inc., priority 1992, dated 1996)
Ends that are not written are not given here.

Legend:
[1] = target: T1, glucagon receptor (rat liver membrane adenylate cyclase) (Rattus norvegicus, UniProt P30082); assay: Adenylate cyclase activity assay with synthetic peptide glucagon analogs (Example 6); format: biochemical; settings: synthetic peptides; in the presence of 20 nm glucagon
T1 construct: A. Preparation of Rat Liver Membranes; from tissue; host or cells: rat liver (Sprague-Dawley) plasma membranes
T1 sequence (P30082 27-485): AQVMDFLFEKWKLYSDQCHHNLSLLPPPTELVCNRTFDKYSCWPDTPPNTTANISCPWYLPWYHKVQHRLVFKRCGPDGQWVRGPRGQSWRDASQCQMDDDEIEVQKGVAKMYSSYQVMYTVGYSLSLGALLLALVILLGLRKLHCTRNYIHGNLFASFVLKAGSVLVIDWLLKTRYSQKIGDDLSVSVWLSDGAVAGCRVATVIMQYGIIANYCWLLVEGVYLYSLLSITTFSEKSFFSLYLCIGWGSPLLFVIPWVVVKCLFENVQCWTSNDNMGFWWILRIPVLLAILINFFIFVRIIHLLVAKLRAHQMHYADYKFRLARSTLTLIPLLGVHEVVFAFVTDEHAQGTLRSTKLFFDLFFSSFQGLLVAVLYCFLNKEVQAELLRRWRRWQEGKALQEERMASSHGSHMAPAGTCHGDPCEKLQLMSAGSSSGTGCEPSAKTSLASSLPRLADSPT
Description: The adenylate cyclase assay was carried out byfirst adding 5 μl of sample (e.g. yeast broth) containingpotential inhibitors at micromolar concentrations to eachwell of a 96-well microtiter plate. […] Fifty microliters of the A+Bsolution was added to each "no glucagon" control well.Glucagon was added from the "G" solution to the remainingA+B solution to a concentration of 1×10^-8 M (thisresults in a final assay concentration of 5×10^-9).Fifty microliters of the A+B+glucagon solution was addedto each well, excluding the "no glucagon" controls. Themembrane preparation was diluted to approximately 2 mg/mlprotein with water. The reaction was started by theaddition of 45 μl of diluted membrane to each well, inorder. The assays were incubated for 12 minutes at roomtemperature, and were stopped by the addition of 100 μl ofStop Mix to each well in the same order that the dilutedmembrane was added. The assay mixtures were clarified bycentrifugation, and the assays were stored at 4° C.
Cyclic AMP concentrations were determined usingan Amersham Scintillation Proximity Assay Kit (Amersham,Arlington Heights, Ill.). Briefly, 10 μl from eachadenylate cyclase reaction was added to individual betaplate wells. Each sample was diluted with 65 μl of 50 mM Na Acetate. Cyclic AMP standards were prepared at 0.0,1.6 and 6.4×10^-9 M or may be prepared from the"non-standards" supplied with Amersham kit.Triplicate standards of 75 μl of each standard were addedto individual beta plate wells. Nonspecific binding (NSB)controls were prepared by adding 150 μl of 50 mM NaAcetate to triplicate beta plate wells. […] Seventy-fivemicroliters of diluted anti-rabbit SPA reagent was thenadded to each well, and the plates were sealed andincubated, with shaking, overnight at room temperature.The plates were counted for one minute per sample in abeta-plate counter. […] The percent response for thestandards and samples was determined using the formula: […]

[2] = target: T2, glucagon receptor (liver plasma membranes) (Rattus norvegicus, UniProt P30082); assay: Glucagon binding assay (125I-glucagon, liver plasma membranes); settings: 30 minute incubation at 30° C., peptide 1.5-800 ng/ml
T2 construct: 25 μl of freshly thawed plasmamembrane containing 10-20 μg of plasma membrane protein; from tissue
T2 sequence (P30082 27-485): as above
Description: The ability of the synthetic peptides to inhibitglucagon binding was determined by measuring the bindingof radiolabeled glucagon in the presence of syntheticpeptide relative to the binding of radiolabeled glucagonin the absence of the synthetic peptides. The syntheticpeptides were dissolved in 10% acetic acid and lyophilizedbefore use. Glucagon was dissolved in 10% acetic acid andlyophilized in 25-μg portions for use as standards. ^125 I-glucagonwith a specific activity of 11.1 kBq/ng wasobtained from Novo Biolabs (Novo Alle, Bagsvaerd, Denmark)and stored at -18° C. Plasma membranes were prepared aspreviously described, except protein detemination wascarried out using a Bio-Rad Protein Assay (BioRad,Richmond, Calif.) according to the manufacturer's directionsusing bovine serum albumin as a standard. Milli-Q gradewater was used throughout .
The lyophilized glucagon and synthetic peptideswere dissolved in 100 μl of 0.05M HCl, left for 3 minutes. The glucagon was diluted with buffer (2.5% humanserum albumin Grade 5, Sigma Chemical Co., St. Louis, Mo.! in 0.1M HEPES, 0.15M NaCl, pH 7.4) to 0.2-200ng/ml.The synthetic peptides were diluted with the same bufferto 1.5-800 ng/ml. […] The filters were counted in a gamma counter.The binding of des-His^1 -(Ala^2,11 -Glu^21)glucagonamide wasshown to be 84%±9.3.

[3] = target: T1, glucagon receptor (rat liver membrane adenylate cyclase); assay: Glucagon antagonist screening assay: adenylate cyclase reaction and cAMP assay with yeast culture broths; format: biochemical; settings: no exogenous glucagon
Description: Young female Sprague-Dawley rats were used forthe preparation of liver membranes using the methodessentially described by Neville (ibid.) and modified byPohl et al. (ibid). Ten to 15 rats yielding 60-100 grams of liver were processed per batch. After the rats wereeuthanized by cervical dislocation, their livers weresurgically removed and transferred, as quickly aspossible, to an iced beaker. Scissors were used to mincethe tissue into pieces approximately 3-6 mm in size. Anyconnective tissue that was present was removed.
The minced tissue was suspended in ice cold 1 mMsodium bicarbonate at a concentration of approximately300 g/l. This suspension was processed in batches in atissue homogenizer with eight strokes of the loose pestle.The homogenate was mixed with additional ice cold 1 mMsodium bicarbonate to yield a final concentration of about40-80 g/l. […]
After centrifugation, as much of the supernatantas possible was carefully decanted and discarded, and thepellets were gently resuspended in the remainingsupernatant with three strokes of the loose pestle in aclean tissue homogenizer. […] After thorough mixing, thesucrose concentration was measured with a refractometerand adjusted to between 43.9% and 44.1% sucrose(corresponding to a refractive index between 1.4076 and1.4080) with either 69% sucrose or water. […]

Compound | inhibition coefficient (I/A50): ratio of inhibitor to agonist concentration wherein the response is reduced to one-half [1] | further results
CSCC[C@H](NC(=O)[C@H](CC(C)C)NC(=O)[C@H](Cc1c[nH]c2ccccc12)NC(=O)[C@H](CCC(N)=O)NC(=O)[C@@H](NC(=O)[C@H](Cc1ccccc1)NC(=O)[C@H](CC(=O)O)NC(=O)[C@H](CCC(N)=O)NC(=O)[C@H](C)NC(=O)[C@H](CCCNC(=N)N)NC(=O)[C@H](CCCNC(=N)N)NC(=O)[C@H](CO)NC(=O)[C@H](CC(=O)O)NC(=O)[C@H](CC(C)C)NC(=O)[C@H](Cc1ccc(O)cc1)NC(=O)[C@H](CCCCN)NC(=O)[C@H](CO)NC(=O)[C@H](Cc1ccc(O)cc1)NC(=O)[C@H](CC(=O)O)NC(=O)[C@H](CO)NC(=O)[C@@H](NC(=O)[C@H](Cc1ccccc1)NC(=O)[C@@H](NC(=O)CNC(=O)[C@H](CCC(N)=O)NC(=O)[C@@H](N)CO)[C@@H](C)O)[C@@H](C)O)C(C)C)C(=O)N[C@@H](CC(N)=O)C(=O)N[C@@H](CO)C(=O)O [F73, des-His^1 - Ser^29 !glucagon] | 30 | 
AQGTFTSDYAKYLDSRRAQEFVQWLMNT-NH2 [des-His^1 -(Ala^2,11 -Glu^21)glucagon amide] |  | binding (inhibition of radiolabeled glucagon binding) [2]: 84%±9.3
DAQGTFISDYSKYLDSRRAQDFVQWLMNT [BB65, Asp^1 -Ala^2 -Ile^7 !glucagon] | 25 | 
SQSTFTSDYSKYLDSRRAQDFVQWLMNT [G56, des-His^1 - Ser^4 !glucagon] | 25 | 
glucagon [ZB210] |  | stimulation of adenylate cyclase activity by culture broth in the absence of exogenous glucagon [3]: stimulation of adenylate cyclase
